We go through two molecules from publication PMC12615385, “A combined chemo-enzymatic treatment for the oxidation of epoxy-based carbon fiber-reinforced polymers (CFRPs)” (Frontiers in Bioengineering and Biotechnology, 2025).

Among the test systems are ItL-01; ItL-02; ItL-03.
Details in all cases: 0.1 M acetate buffer pH 4, 25 °C, 30 min
Substrate in the data set “purified protein”: CCn1c(=NN=c2sc3cc(S(=O)(=O)O)ccc3n2CC)sc2cc(S(=O)(=O)O)ccc21
Description: purified protein. Type of data set: biochemical, Escherichia coli.

One may read the Km as the substrate concentration at which the rate is half of its maximum. Usually kcat stands for the number of substrate molecules converted per active site and unit of time at saturation.

As to `CCn1c(=NN=c2sc3cc(S(=O)(=O)O)ccc3n2CC)sc2cc(S(=O)(=O)O)ccc21` [ABTS, 2,2′-azino-bis(3-ethylbenzothiazoline-6-sulfonic acid)], the values for the Km in the data set with ItL-01, in the data set on ItL-02 and in the data set on ItL-03 were 4.5 ± 1.42 mM, 3.64 ± 0.26 mM and 7.76 mM, respectively.

B1: CueO (Escherichia coli K-12) (protein)
chain: AERPTLPIPDLLTTDARNRIQLTIGAGQSTFGGKTATTWGYNGNLLGPAVKLQRGKAVTVDIYNQLTEETTLHWHGLEVPGEVDGGPQGIIPPGGKRSVTLNVDQPAATCWFHPHQHGKTGRQVAMGLAGLVVIEDDEILKLMLPKQWGIDDVPVIVQDKKFSADGQIDYQLDVMTAAVGWFGDTLLTNGAIYPQHAAPRGWLRLRLLNGCNARSLNFATSDNRPLYVIASDGGLLPEPVKVSELPVLMGERFEVLVEVNDNKPFDLVTLPVSQMGMAIAPFDKPHPVMRIQPIAISASGALPDTLSSLPALPSLEGLTVRKLQLSMDPMLDMMGMQMLMEKYGDQAMAGMDHSQMMGHMGHGNMNHMNHGGKFDFHHANKINGQAFDMNKPMFAAAKGQYERWVISGVGDMMLHPFHIHGTQFRILSENGKPPAAHRAGWKDTVKVEGNVSEVLVKFNHDAPKEHAYMAHCHLLEHEDTGMMLGFTV
notes: codon-optimised synthetic gene in pET21a(+), E. coli T7 Shuffle, Ni-NTA purified; 50-60 kDa
Regarding B1, in “purified protein”, the Km was determined as 2.39 ± 0.23 mM and the turnover number (kcat) came out at 0.0045 ± 0.0005 s⁻¹.
